Assay results: patent publication US20100227767A1, “STOCHASTIC CONFINEMENT TO DETECT, MANIPULATE, AND UTILIZE MOLECULES AND ORGANISMS” (priority 2007, published 2010)

Experiments:
[1] = tested on: Methicillin Resistant S. aureus (MRSA, ATCC#43300); test: plug-based microfluidic antibiotic susceptibility screen with alamarBlue viability indicator; settings: FIG. 2c; breakpoint concentration; negative control VCM, positive control blank
[2] = tested on: Methicillin Resistant S. aureus (MRSA); settings: 24 mg/L; cited from earlier work
[3] = tested on: Staphylococcus aureus ATCC#25923 (MSSA); test: antibiotic testing on Mueller Hinton agar plates, MSSA; settings: 30° C; even after 40 h
Procedure: Plates were made from Mueller Hinton Agar (Fluka, Switzerland). After autoclaving, the agar was cooled and antibiotics were added and 20 mL plates were poured. For CFX and OXA testing, 50 μL of MRSA and MSSA bacterial culture at 4×10^3 CFU/mL was spread onto separate TSA plates. The plates were incubated at 30° C. After 16.5 h and 40 h the plates were examined for colonies. […] For AMP, ERT, LVF, and VCM, 5 μL of culture at 2×10^4 CFU/mL were spread onto plates, and the plates were incubated at 37° C. for 12 h. After 12 h, growth of colonies on the plates was considered resistance to the antibiotic and no colonies on the plates were considered sensitivity to the antibiotic. For all tests, control plates with no antibiotic were inoculated to ensure that each plate tested received many CFU during inoculation.

[4] = tested on: Methicillin Sensitive S. aureus (MSSA); settings: 24 mg/L; cited from earlier work
MSSA = test: plug-based drug screening in human blood plasma/LB, MSSA; settings: MSSA in 1:1 human blood plasma/LB; breakpoint concentration; 7.5 h at 37° C
[5] = tested on: Methicillin Resistant S. aureus (MRSA, ATCC#43300); test: macro-scale experiments, MRSA

SMILES | plug fluorescence compared to positive and negative controls (unpaired t-test) [1] | known inhibition of the strain by CFX [2] | appearance of MSSA colonies on antibiotic plates [3] | known inhibition of the strain by CFX [4] | increase in fluorescence intensity of plugs with antibiotic (MSSA) | inhibition of the S. aureus strain in macro-scale experiments [5]
CC[C@H]1OC(=O)[C@H](C)[C@@H](O[C@H]2C[C@@](C)(OC)[C@@H](O)[C@H](C)O2)[C@H](C)[C@@H](O[C@@H]2O[C@H](C)C[C@H](N(C)C)[C@H]2O)[C@](C)(O)C[C@@H](C)C(=O)[C@H](C)[C@@H](O)[C@]1(C)O [ERT, erythromycin] | statistically different than the negative control | – | – | – | – | –
CO[C@@]1(NC(=O)Cc2cccs2)C(=O)N2C(C(=O)O)=C(COC(N)=O)CS[C@@H]21 [CFX, cefoxitin] | statistically different than the negative control | inhibited | did not appear | inhibited | – | –
Cc1onc(-c2ccccc2)c1C(=O)N[C@@H]1C(=O)N2[C@@H]1SC(C)(C)[C@@H]2C(=O)O [OXA, oxacillin] | statistically different than the negative control | – | did not appear | – | – | –
CC1(C)S[C@@H]2[C@H](NC(=O)[C@H](N)c3ccccc3)C(=O)N2[C@H]1C(=O)O [AMP, ampicillin] | statistically different than the negative control | – | – | – | no increase in fluorescence intensity | –
CN[C@H](CC(C)C)C(=O)N[C@H]1C(=O)N[C@@H](CC(N)=O)C(=O)N[C@H]2C(=O)N[C@H]3C(=O)N[C@H](C(=O)N[C@H](C(=O)O)c4cc(O)cc(O)c4-c4cc3ccc4O)[C@H](O)c3ccc(c(Cl)c3)Oc3cc2cc(c3O[C@@H]2O[C@H](CO)[C@@H](O)[C@H](O)[C@H]2O[C@H]2C[C@](C)(N)[C@H](O)[C@H](C)O2)Oc2ccc(cc2Cl)[C@H]1O [VCM, vancomycin] | statistically different than positive controls | – | – | – | – | inhibited
